Test [1] relates to LPS induced synovial inflammation in rabbit knee. Nature of the test: Rabbit model of destructive joint inflammation (intra-articular LPS). It counts as in vivo, female New Zealand rabbits. The settings on record: for synovium inflammation score: 16 h, score 1 minimal, 2 mild, 3 moderate, 4 moderate-marked, vehicle 3. An excerpt: This study design mimics the destructive joint inflammation seen in arthritis. Intra-articular injection of LPS causes an acute inflammatory response characterized by the release of cytokines and chemokines, many of which have been identified in rheumatoid arthritic joints. Marked increases in leukocytes occur in synovial fluid and in synovium in response to elevation of these chemotactic mediators. Selective antagonists of chemokine receptors have shown efficacy in this model (see Podolin, et al., J. Immunol. 169(11):6435-6444 (2002)).
Sixteen hours after the LPS injection, knees were lavaged and cells counts performed. Beneficial effects of treatment were determined by histopathologic evaluation of synovial inflammation. The following inflammation scores were used for the histopathologic evaluation: 1—minimal, 2—mild, 3—moderate, 4—moderate-marked.

The subject of test [2] is arthritis induced clinical ankle swelling. As to the kind of experiment: Rat model of collagen induced arthritis (17 day developing type II collagen arthritis). Format: in vivo, female Lewis rats. The settings on record: 25 mg/kg sub-cutaneous daily day 0 till day 17. How it is done: A 17 day developing type II collagen arthritis study was conducted to evaluate the effects of compound 1.028 on arthritis induced clinical ankle swelling. Rat collagen arthritis is an experimental model of polyarthritis that has been widely used for preclinical testing of numerous anti-arthritic agents (see Trentham, et al., J. Exp. Med. 146(3):857-868 (1977), Bendele, et al., Toxicologic Pathol. 27:134-142 (1999), Bendele, et al., Arthritis Rheum. 42:498-506 (1999)). The hallmarks of this model are reliable onset and progression of robust, easily measurable polyarticular inflammation, marked cartilage destruction in association with pannus formation and mild to moderate bone resorption and periosteal bone proliferation. Female Lewis rats (approximately 0.2 kilograms) were anesthetized with isoflurane and injected with Freund's Incomplete Adjuvant containing 2 mg/mL bovine type II collagen at the base of the tail and two sites on the back on days 0 and 6 of this 17 day study. Compound 1.028 was dosed daily in a sub-cutaneous manner from day 0 till day 17 at a dose of 25 mg/kg and a volume of 1 mL/kg in the following vehicle (20% N,N-dimethylacetamide, 75% corn oil, 5% Tween-80). Caliper measurements of the ankle joint diameter were taken, and reducing joint swelling was taken as a measure of efficacy.

Structures are written as SMILES.

Regarding `Cc1c(Cl)c(C(F)(F)F)nn1CC(=O)N1CCN(c2ccc(F)cc2)CC1` [CCX-105], the synovium inflammation score in test [1] (dose 1=50 μM intra-articular with LPS 10 ng) worked out at 2; in test [1] (dose 2=100 μM intra-articular with LPS 10 ng), 1. Further, the “Inhibition of the inflammatory response” value in test [1] (rabbit LPS intra-articular model) was “significantly and specifically inhibit the inflammatory response”.

Take `COc1cc(N2CCN(C(=O)Cn3nc(C(F)(F)F)c(Cl)c3C)CC2)c(Cl)cc1Cl` [Compound 1.028]: in test [2], the “Inhibition of arthritis induced ankle swelling” value was “significantly and specifically inhibit the arthritis induced ankle swelling”. Also, in test [2] (vehicle 15.7% +/− 2.0%, normal 0% +/− 0.3%), the “change in joint diameter day9-day17” value is 9.1% +/− 1.8%.

Source of the values: US8324216B2, “Substituted piperazines” (Chemocentryx, Inc., priority 2002, dated 2012).
